Results reported in US8568755B2 (priority 2007, dated 2013).
Several values for one entry are separate records, joined by “and”; a condition that tells them apart may be missing. Equal entries are not always repeated. Where two headings read alike, the source gives them in different places.

Experiments:
Sphaerotheca fuliginea = assay type: in vivo
Erysiphe graminis = assay: Test on preventive effect against wheat powdery mildew (Test Example 1); assay type: in vivo
[1] = partner fungicide alone 125 ppm
[2] = partner fungicide alone 250 ppm
[3] = partner fungicide alone 500 ppm
[4] = partner fungicide alone 0.125 ppm

## Cc1cc(C)nc(Nc2ccccc2)n1 [pyrimethanil]
Sphaerotheca fuliginea; partner fungicide alone 25 ppm
  diseased area ratio to non-treated section: 90.0

## polyoxins
Sphaerotheca fuliginea; [1]
  diseased area ratio to non-treated section: 40.0
Sphaerotheca fuliginea; [2]
  diseased area ratio to non-treated section: 35.0

## COc1cc(C)c(C(=O)c2c(OC)ccc(Br)c2C)c(OC)c1OC [metrafenone, 3′-bromo-2,3,4,6′-tetramethoxy-2′,6-dimethylbenzophenone]
Erysiphe graminis; fungicide (b) alone 0.0075 ppm
  diseased area ratio to non-treated section: 100
Erysiphe graminis; fungicide (b) alone 0.03 ppm
  diseased area ratio to non-treated section: 35.0

## [Cl-].[Cu+2].[Cu+2].[OH-].[OH-].[OH-] [copper oxychloride]
Sphaerotheca fuliginea; [2]
  diseased area ratio to non-treated section: 25.0
Sphaerotheca fuliginea; [3]
  diseased area ratio to non-treated section: 21.9
Sphaerotheca fuliginea; partner fungicide alone 1000 ppm
  diseased area ratio to non-treated section: 20.7 and 20.6

## FC(F)C(F)(F)OCC(Cn1cncn1)c1ccc(Cl)cc1Cl (centres unmarked) [tetraconazole]
Erysiphe graminis; fungicide (b) alone 0.125 ppm
  diseased area ratio to non-treated section: 60.0
Erysiphe graminis; fungicide (b) alone 0.5 ppm
  diseased area ratio to non-treated section: 52.5

## COc1cc(C)c(C(=O)c2c(Cl)cnc(Cl)c2C(F)(F)F)c(OC)c1OC [Compound A, 4-(2,3,4-trimethoxy-6-methylbenzoyl)-2,5-dichloro-3-trifluoromethylpyridine]
Erysiphe graminis; [4]
  diseased area ratio to non-treated section: 65

## COc1ccc(C(=CC(=O)N2CCOCC2)c2ccc(Cl)cc2)cc1OC [dimethomorph]
Sphaerotheca fuliginea; single use at 500 ppm
  diseased area ratio to non-treated section (experimental value): 95.0

## CC1COC(Cn2cncn2)(c2ccc(Oc3ccc(Cl)cc3)cc2Cl)O1 (centres unmarked) [difenoconazole]
Sphaerotheca fuliginea; partner fungicide alone 8 ppm
  diseased area ratio to non-treated section: 31.3
Sphaerotheca fuliginea; partner fungicide alone 16 ppm
  diseased area ratio to non-treated section: 9.4
Sphaerotheca fuliginea; partner fungicide alone 31 ppm
  diseased area ratio to non-treated section: 8.1

## N#Cc1c(Cl)c(Cl)c(Cl)c(C#N)c1Cl [chlorothalonil]
Sphaerotheca fuliginea; partner fungicide alone 4 ppm
  diseased area ratio to non-treated section: 77.5
Sphaerotheca fuliginea; partner fungicide alone 16 ppm
  diseased area ratio to non-treated section: 37.5

## CCCOC/C(=N\c1ccc(Cl)cc1C(F)(F)F)n1ccnc1 [triflumizole]
Sphaerotheca fuliginea; partner fungicide alone 3 ppm
  diseased area ratio to non-treated section: 85
Sphaerotheca fuliginea; partner fungicide alone 12 ppm
  diseased area ratio to non-treated section: 70

## COc1cc(C)c(C(=O)c2c(OC)ncc(Cl)c2C)c(OC)c1OC [Compound D, 3-(2,3,4-trimethoxy-6-methylbenzoyl)-5-chloro-2-methoxy-4-methylpyridine]
Erysiphe graminis; partner fungicide alone 0.06 ppm
  diseased area ratio to non-treated section: 27.5
Erysiphe graminis; [4]
  diseased area ratio to non-treated section: 15.0

## O=C([O-])O.[K+] [potassium bicarbonate]
Sphaerotheca fuliginea; single use at 100 ppm
  diseased area ratio to non-treated section (experimental value): 25.0
Sphaerotheca fuliginea; single use at 1000 ppm
  diseased area ratio to non-treated section (experimental value): 20.0

## CC1(C(=O)Nc2ccc(O)c(Cl)c2Cl)CCCCC1 [fenhexamid]
Sphaerotheca fuliginea; [1]
  diseased area ratio to non-treated section: 52.5
Sphaerotheca fuliginea; [2]
  diseased area ratio to non-treated section: 52.5
Sphaerotheca fuliginea; [3]
  diseased area ratio to non-treated section: 50.0

## CCCCC(O)(Cn1cncn1)c1ccc(Cl)cc1Cl (centres unmarked) [hexaconazole]
Sphaerotheca fuliginea; partner fungicide alone 2 ppm
  diseased area ratio to non-treated section: 95.0
Sphaerotheca fuliginea; partner fungicide alone 4 ppm
  diseased area ratio to non-treated section: 85.0
Sphaerotheca fuliginea; partner fungicide alone 8 ppm
  diseased area ratio to non-treated section: 75.0

## CC1(C)CCC(Cc2ccc(Cl)cc2)C1(O)Cn1cncn1 (centres unmarked) [metconazole]
Erysiphe graminis; fungicide (b) alone 0.0075 ppm
  diseased area ratio to non-treated section: 95.0
Erysiphe graminis; fungicide (b) alone 0.03 ppm
  diseased area ratio to non-treated section: 55.0

## CC(C)Oc1ccc(C(=O)C(C)(C)NC(=O)c2ncccc2C(F)(F)F)cc1 [Compound No. 7, N-[[4′-(2-propyloxy)-1,1-dimethyl]phenacyl]-3-trifluoromethyl-2-pyridinecarboxamide]
Erysiphe graminis; Compound (a) alone 8 ppm
  diseased area ratio to non-treated section: 30.0
Erysiphe graminis; Compound (a) alone 16 ppm
  diseased area ratio to non-treated section: 25.0
Erysiphe graminis; Compound (a) alone 31 ppm
  diseased area ratio to non-treated section: 4.0

## Cc1cc(OC(C)C)ccc1C(=O)C(C)(C)NC(=O)c1ncccc1C(F)(F)F [No. 4]
Erysiphe graminis; Compound No.x alone 16 ppm
  diseased area ratio to non-treated section: 17.5
Erysiphe graminis; Compound No.x alone 31 ppm
  diseased area ratio to non-treated section: 17.5
Erysiphe graminis; Compound No.x alone 63 ppm
  diseased area ratio to non-treated section: 15.0 and 7.5
Erysiphe graminis; Compound No.x alone 125 ppm
  diseased area ratio to non-treated section: 5.0

## Cc1ccc(-c2c(Cl)nc(C#N)n2S(=O)(=O)N(C)C)cc1 [cyazofamid, reference compound]
Sphaerotheca fuliginea; fungicide (b) alone 63 ppm
  diseased area ratio to non-treated section: 80.0
Sphaerotheca fuliginea; fungicide (b) alone 125 ppm
  diseased area ratio to non-treated section: 57.5
Sphaerotheca fuliginea; partner fungicide alone 63 ppm
  diseased area ratio to non-treated section: 70.0
Sphaerotheca fuliginea; [1]
  diseased area ratio to non-treated section: 57.5

## CC(=O)c1c(C)c(C)nc2c(F)cc(C(C)(C)C)cc12 [compound β, 2,3-dimethyl-6-t-butyl-8-fluoro-4-acetylquinoline]
Erysiphe graminis; fungicide (b) alone 10 ppm
  diseased area ratio to non-treated section: 95.0

## CC(C)(C)C(O)(CCc1ccc(Cl)cc1)Cn1cncn1 (centres unmarked) [tebuconazole]
Erysiphe graminis; fungicide (b) alone 0.5 ppm
  diseased area ratio to non-treated section: 10.0
Erysiphe graminis; fungicide (b) alone 1 ppm
  diseased area ratio to non-treated section: 5.0

## CC(Cc1ccc(C(C)(C)C)cc1)CN1CCCCC1 (centres unmarked) [fenpropidin]
Erysiphe graminis; fungicide (b) alone 12.5 ppm
  diseased area ratio to non-treated section: 27.5
Erysiphe graminis; fungicide (b) alone 25 ppm
  diseased area ratio to non-treated section: 2.0
Erysiphe graminis; fungicide (b) alone 50 ppm
  diseased area ratio to non-treated section: 1.0

## Cc1cc(C2CC2)nc(Nc2ccccc2)n1 [cyprodinil]
Erysiphe graminis; fungicide (b) alone 31 ppm
  diseased area ratio to non-treated section: 75.0
Erysiphe graminis; fungicide (b) alone 63 ppm
  diseased area ratio to non-treated section: 70.0
Erysiphe graminis; fungicide (b) alone 125 ppm
  diseased area ratio to non-treated section: 32.5

## N#Cc1c[nH]cc1-c1cccc2c1OC(F)(F)O2 [fludioxonil]
Erysiphe graminis; fungicide (b) alone 125 ppm
  diseased area ratio to non-treated section: 95.0
Erysiphe graminis; fungicide (b) alone 250 ppm
  diseased area ratio to non-treated section: 90.0
Erysiphe graminis; fungicide (b) alone 500 ppm
  diseased area ratio to non-treated section: 85.0

## CC(C1CC1)C(O)(Cn1cncn1)c1ccc(Cl)cc1 (centres unmarked) [cyproconazole]
Erysiphe graminis; fungicide (b) alone 0.125 ppm
  diseased area ratio to non-treated section: 97.5
Erysiphe graminis; fungicide (b) alone 0.5 ppm
  diseased area ratio to non-treated section: 60.0
